Consider one compound from patent US10954461B2, “Methods for preventing microbial growth and microbiologically influenced corrosion in a biodegradable and/or renewable fuel, hydraulic fluid and/or lubricant” (TRIBORON INTERNATIONAL AB, priority 2016, dated 2021).

The conditions of data set [1]: based on available in vitro data; SCCS opinion 2010; cited from earlier work.
The subject of data set [2] is microbial growth. The conditions noted are these: lowest tested concentration (1:2000, 44 ppm boric acid, 7.5 ppm boron); HVO and RME with lake water; initial results.
Procedure: 20 samples were prepared, 10×50 g of each fuel type, HVO and RME respectively. For each fuel type, there were four boron concentrations and a reference. One of each concentration and fuel was placed in a heating chamber at 45° C. and in front of a window subjected to sunlight. Water was taken from a lake nearby and stored in the heat chamber for an amount of time to enhance microorganism content and activity. 15 g of lake water was added to each sample, and the contaminated samples stored one week in 45° C. and exposed to sunlight. A stable solution of inorganic boron in ethanol was added to each sample in different dilutions, corresponding to the theoretical concentrations in the samples shown in table 3: [table]

Turning to `OB(O)O` [boric acid], the mutagenicity entry in data set [1] is recorded as “non-mutagenic”. For the same compound, the “effect on microbial growth in contaminated samples” value in data set [2] is given as “marked effect”.
